Assays:
[1] = target: T1, PRMT5 (Homo sapiens, UniProt O14744); assay: PRMT5 biochemical IC50 assay with SAM as cofactor; details: PRMT5, SAM as cofactor; read-out: SAM IC50
T1 construct: purchased Viva (custom protein)

[2] = target: T1, PRMT5; assay: PRMT5 biochemical IC50 assay with no cofactor; details: PRMT5, no cofactor; read-out: No Cofactor/rel IC50
Excerpt: Table 1 indicates IC50 values (μM) against PRMT5 for exemplary compounds in the presence of SAM as cofactor, with no cofactor, and with MTA as cofactor, respectively (columns 4-6). […] Ki values can be calculated from the IC50 values as described in the Examples section. As detailed in the Examples section, for the assay performed in the presence of SAM, IC50=Ki×1.5 (Ki=IC50/1.5).

[3] = target: T1, PRMT5; assay: PRMT5 biochemical IC50 assay with MTA as cofactor; details: PRMT5, MTA as cofactor; read-out: MTA IC50
[4] = tested on: HAP1 MTAP-intact cell line; assay: SDMA in-cell western assay, HAP1 MTAP-intact; format: cell-based; details: Homo sapiens, HAP1, SDMA in-cell western, HAP1 MTAP-intact; read-out: MTAP HAP1 intact IC50
Outline: (§1)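 Readout: in-cell western detection of SDMA. Cells: HAP1 expressing endogenous MTAP and an MTAP-null HAP1 counterpart. Output: IC50.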

[5] = tested on: HAP1 MTAP-deleted cell line; assay: SDMA in-cell western assay, HAP1 MTAP-deleted; format: cell-based; details: for IC50: Homo sapiens, HAP1, SDMA in-cell western, HAP1 MTAP-deleted, read-out: HAP 1 MTAP deleted IC50; for MTAP intact/deleted ratio: IC50 ratio HAP1 MTAP-intact / HAP1 MTAP-deleted, SDMA in-cell western
Outline: as §1

[6] = tested on: HAP1 MTAP-deleted cell line; assay: Viability assay, MTAP-deleted cell line; format: cell-based; details: Homo sapiens, HAP1, viability IC50, MTAP-deleted cell line; read-out: HAP1 MTAP deleted viability
Excerpt: Table 1 additionally indicates IC50 values in a viability assay for the MTAP-deleted cell line (column 10), indicating the effect of treatment with compound on cell survival.

T1 sequence (O14744 whole entry): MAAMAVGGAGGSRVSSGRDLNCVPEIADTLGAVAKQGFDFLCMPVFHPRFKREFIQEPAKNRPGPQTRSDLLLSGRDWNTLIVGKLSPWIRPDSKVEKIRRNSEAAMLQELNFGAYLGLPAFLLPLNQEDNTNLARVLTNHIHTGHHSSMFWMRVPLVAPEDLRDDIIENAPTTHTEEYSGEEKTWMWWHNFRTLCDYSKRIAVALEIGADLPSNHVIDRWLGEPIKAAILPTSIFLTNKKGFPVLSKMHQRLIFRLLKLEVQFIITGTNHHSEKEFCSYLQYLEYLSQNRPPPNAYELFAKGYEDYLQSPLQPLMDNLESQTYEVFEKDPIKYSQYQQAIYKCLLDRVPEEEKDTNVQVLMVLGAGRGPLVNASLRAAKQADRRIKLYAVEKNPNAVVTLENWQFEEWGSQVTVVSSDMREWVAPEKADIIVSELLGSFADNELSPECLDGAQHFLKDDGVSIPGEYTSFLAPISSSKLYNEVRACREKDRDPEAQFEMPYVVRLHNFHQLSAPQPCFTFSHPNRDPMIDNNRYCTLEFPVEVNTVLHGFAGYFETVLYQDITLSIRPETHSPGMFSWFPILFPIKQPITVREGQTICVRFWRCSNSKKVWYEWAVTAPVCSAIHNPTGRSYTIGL
T1 sequence (Q9BQA1 whole entry partner): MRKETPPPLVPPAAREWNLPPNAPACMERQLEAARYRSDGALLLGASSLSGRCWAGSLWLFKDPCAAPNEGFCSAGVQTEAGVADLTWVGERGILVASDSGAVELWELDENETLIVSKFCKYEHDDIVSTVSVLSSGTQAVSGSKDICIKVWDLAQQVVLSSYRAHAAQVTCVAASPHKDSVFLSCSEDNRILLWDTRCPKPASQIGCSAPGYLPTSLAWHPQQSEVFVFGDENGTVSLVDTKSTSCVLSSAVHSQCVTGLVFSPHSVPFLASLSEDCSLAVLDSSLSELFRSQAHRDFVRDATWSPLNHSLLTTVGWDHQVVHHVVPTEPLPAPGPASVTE

Row | Compound | IC50 [1] | IC50 [2] | IC50 [3] | IC50 [4] | IC50 [5] | MTAP intact/deleted ratio [5] | IC50 [6]
1 | Cc1cc(NC(=O)C(=O)N2C[C@H](C)CC[C@H]2c2cc(F)cc(Cl)c2)cnc1N (single isomer, unassigned) [Compound 659] | 50 to 500 nM | < 50 nM | < 50 nM | 100 to 1000 nM | < 100 nM | A (an IC50 ratio greater than or equal to 10 fold) | < 1000 nM
2 | Cc1cc(NC(=O)C(=O)N2C[C@@H](C)CC[C@@H]2c2cc(Cl)cc(Cl)c2)cnc1N (single isomer, unassigned) [Compound 660] | > 500 nM | > 500 nM | 50 to 500 nM | > 1000 nM | > 1000 nM | B (an IC50 ratio greater than or equal to 3 fold but lower than 10 fold) | > 10000 nM
3 | C[C@@H]1CC[C@@H](c2cc(F)c3[nH]ncc3c2)N(C(=O)C(=O)Nc2cncc(C(N)=O)c2)C1 (single isomer, unassigned) [Compound 663] | 50 to 500 nM | < 50 nM | < 50 nM | > 1000 nM | < 100 nM | A (an IC50 ratio greater than or equal to 10 fold) | 1000 to 10000 nM
4 | Cc1cc(NC(=O)C(=O)N2C[C@@H](C)CC[C@@H]2c2cc(Cl)cc(C(F)(F)F)c2)cnc1N (single isomer, unassigned) [Compound 665] | 50 to 500 nM | 50 to 500 nM | < 50 nM | > 1000 nM | 100 to 1000 nM | A (an IC50 ratio greater than or equal to 10 fold) | 1000 to 10000 nM
5 | COc1ncc(NC(=O)C(=O)N2C[C@H](C)CC[C@H]2c2ccc3c(c2)CCC(=O)N3)cc1C(N)=O (single isomer, unassigned) [Compound 674] | 50 to 500 nM | < 50 nM | < 50 nM | 100 to 1000 nM | < 100 nM | A (an IC50 ratio greater than or equal to 10 fold) | < 1000 nM
6 | Cc1cc(NC(=O)C(=O)N2C[C@H](C)CC[C@H]2c2ccc(-c3ccn[nH]3)cc2)cnc1N (single isomer, unassigned) [Compound 675] | > 500 nM | > 500 nM | 50 to 500 nM | > 1000 nM | > 1000 nM | B (an IC50 ratio greater than or equal to 3 fold but lower than 10 fold) | > 10000 nM
7 | Cc1cc(NC(=O)C(=O)N2C[C@@H](C)CC[C@@H]2c2ccc(-c3ccn[nH]3)cc2)cnc1N (single isomer, unassigned) [Compound 676] | 50 to 500 nM | < 50 nM | < 50 nM | 100 to 1000 nM | < 100 nM | B (an IC50 ratio greater than or equal to 3 fold but lower than 10 fold) | < 1000 nM
8 | Cc1cc(NC(=O)C(=O)N2C[C@H](C)CC[C@H]2c2cc(Cl)cc(Cl)c2)cnc1N (single isomer, unassigned) [Compound 681] | 50 to 500 nM | < 50 nM | < 50 nM | > 1000 nM | < 100 nM | A (an IC50 ratio greater than or equal to 10 fold) | 1000 to 10000 nM
9 | C[C@H]1CN(C(=O)C(=O)Nc2cncc(C(N)=O)c2)[C@H](c2ccc(F)c(F)c2)CC1(F)F (single isomer, unassigned) [Compound 683] | 50 to 500 nM | 50 to 500 nM | < 50 nM | > 1000 nM | 100 to 1000 nM | A (an IC50 ratio greater than or equal to 10 fold) | 1000 to 10000 nM
10 | Cc1cc(NC(=O)C(=O)N2C[C@H](C)C(F)(F)C[C@H]2c2ccc(F)c(F)c2)cnc1N (single isomer, unassigned) [Compound 684] | > 500 nM | > 500 nM | > 500 nM | > 1000 nM | > 1000 nM | C (an IC50 ratio of less than 3 fold) | > 10000 nM

From patent US11999727B2 (Tango Therapeutics, Inc., priority 2020, dated 2024)
